According to patent publication US4265901A, “2-Oxybenzimidazoline compounds” (priority 1979, dated 1981):

Experiments:
Corn [1] = assay: Post-emergence herbicide test, corn; assay type: in vivo, Zea mays
Procedure: (§1) In this evaluation, each compound to be tested was dissolved in a 1:1 mixture of acetone and ethanol containing a small amount of Toximul R and Toximul S (each a sulfonate/nonionic blend produced by Stepan Chemical Company, Northfield, Illinois). The solution was then diluted with deionized water to a composition of the following concentrations, by weight: Plant species used as indicators of herbicidal activity were planted in galvanized pans (flats) 31.5 cm. long, 21.5 cm. wide, and 8.0 cm. deep. The bottoms of the flats had holes to facilitate drainage. The soil used was a 1:1 ratio by volume of masonry sand and shredded top soil. Seeds of seven indicator species were planted in rows perpendicular to the long axis of the flat, one species per row, and covered with 0.5 to 1.0 cm. of sterilized soil. Indicator species and approximate number of seeds planted were as follows: Flats that were to receive preemergence treatments were planted one day prior to, or on the same day treatments were applied. Flats that were to receive postemergence treatments were planted 9 days prior to treatment and placed in a growth chamber until the day of treatment. In the growth chamber, flats received 12 to 18 hours of light per day and were subject to temperatures of 75° to 85° F. The formulated test compound was applied uniformly to the indicator species with a modified DeVilbiss atomizer using air pressure of 3 to 5 psi. Each flat received 12.5 ml. of spray solution which was equal to 200 gallons/acre total spray volume. Plants were maintained in a greenhouse after treatment. Herbicidal effects of chemicals were evaluated by two injury rating systems 18 days after preemergence applications and 14 days after postemergence applications. The degree of plant injury was based on a 1 to 5 scale and a single numerical rating was assigned to each test species as follows: […]

Corn [2] = assay: Pre-emergence herbicide test, corn; assay type: in vivo, Zea mays
Procedure: as §1

Foxtail [3] = assay: Post-emergence herbicide test, foxtail; assay type: in vivo, Setaria italica
Procedure: as §1

Velvetleaf [4] = assay: Post-emergence herbicide test, velvetleaf; assay type: in vivo, Abutilon theophrasti
Procedure: as §1

Foxtail [5] = assay: Pre-emergence herbicide test, foxtail; assay type: in vivo, Setaria italica
Procedure: as §1

Zinnia [6] = assay: Post-emergence herbicide test, zinnia; assay type: in vivo, Zinnia elegans
Procedure: as §1

Mexican bean beetle = Mexican bean beetle test; assay type: in vivo, Epilachna varivestis; details: 1000 ppm, 4 days; further: ranges in brackets are in %
Procedure: In this evaluation, each compound to be tested was dissolved in a 1:1 mixture of acetone and ethanol containing a small amount of Toximul R and Toximul S (each a sulfonate/nonionic blend produced by Stephan Chemical Company, Northfield, Ill.). The solution was then diluted with distilled water to a concentration of 1000 ppm of test compound.
This test was conducted with second instar larvae of Epilachna varivestis Mulsant, order Coleoptera, family Coccinellidae. Larvae for the test, of uniform size and not molting, were picked by hand from flats of Bountiful snap beans on which they were grown and were placed in 100×20 mm plastic petri dishes for testing. Five larvae were used per replicate.
Two 4- to 6-day-old Bountiful green bean primry leaves (approximately 6 sq. in. of leaf surface) were used for each replicate. Two replicates were run per compound.
[…] […] The nozzle of the atomizer was held 12 to 18 inches from the leaves and was supplied with 5-6 psi air pressure. The atomizer was rinsed with acetone after each compound was sprayed. The plants were allowed to dry. The leaves were then cut from the plants and placed in the petri dishes containing the bean beetle larvae. A small wad of wet cellucotton was added to each dish to help prevent the leaves from wilting.
After 4 days, a mortality count was made and the amount of feeding was noted. Moribund larvae were counted as dead.

Zinnia [7] = assay: Pre-emergence herbicide test, zinnia; assay type: in vivo, Zinnia elegans
Procedure: as §1

Morning-glory = assay: Post-emergence herbicide test, morningglory; assay type: in vivo, Ipomoea purpurea
Procedure: as §1

Velvetleaf [8] = assay: Pre-emergence herbicide test, velvetleaf; assay type: in vivo, Abutilon theophrasti
Procedure: as §1

Pigweed [9] = assay: Post-emergence herbicide test, pigweed; assay type: in vivo, Amaranthus retroflexus
Procedure: as §1

Large Crabgrass [10] = assay: Post-emergence herbicide test, large crabgrass; assay type: in vivo, Digitaria sanguinalis
Procedure: as §1

Large Crabgrass [11] = assay: Pre-emergence herbicide test, large crabgrass; assay type: in vivo, Digitaria sanguinalis
Procedure: as §1

Pigweed [12] = assay: Pre-emergence herbicide test, pigweed; assay type: in vivo, Amaranthus retroflexus
Procedure: as §1

## O=[N+]([O-])c1cc(C(F)(F)F)cc2c1NC(O)(C(F)(F)C(F)F)N2O (stereo not drawn) [Example 12, 1,2-Dihydroxy-2-(1,1,2,2-Tetrafluoroethyl)-4-Nitro-6-(Trifluoromethyl)Benzimidazoline]
Corn [1]; 1/4 lb/A
  plant injury rating: 1 (no injury)
Corn [1]; 1/8 lb/A
  plant injury rating: 1 (no injury)
Corn [1]; 1 lb/A
  plant injury rating: 1 (no injury)
Corn [1]; 2 lb/A
  plant injury rating: 2B
Corn [1]; 8 lb/A
  plant injury rating: 1 (no injury)
Corn [2]; 1/2 lb/A
  plant injury rating: 1 (no injury)
Corn [2]; 1 lb/A
  plant injury rating: 1 (no injury)
Corn [2]; 2 lb/A
  plant injury rating: 1 (no injury)
Corn [2]; 8 lb/A
  plant injury rating: 1 (no injury)
Foxtail [3]; 1/4 lb/A
  plant injury rating: 2B
Foxtail [3]; 1/8 lb/A
  plant injury rating: 2S
Foxtail [3]; 1 lb/A
  plant injury rating: 4BS
Foxtail [3]; 2 lb/A
  plant injury rating: 4BS
Foxtail [3]; 8 lb/A
  plant injury rating: 3BS
Velvetleaf [4]; 1/4 lb/A
  plant injury rating: 2B
Velvetleaf [4]; 1/8 lb/A
  plant injury rating: 2SB
Velvetleaf [4]; 1 lb/A
  plant injury rating: 4BS
Velvetleaf [4]; 2 lb/A
  plant injury rating: 4BS
Velvetleaf [4]; 8 lb/A
  plant injury rating: 4BS
Foxtail [5]; 1/2 lb/A
  plant injury rating: 1 (no injury)
Foxtail [5]; 1 lb/A
  plant injury rating: 1 (no injury)
Foxtail [5]; 2 lb/A
  plant injury rating: 1 (no injury)
Foxtail [5]; 8 lb/A
  plant injury rating: 2S
Zinnia [6]; 1/4 lb/A
  plant injury rating: 3B
Zinnia [6]; 1/8 lb/A
  plant injury rating: 2B
Zinnia [6]; 1 lb/A
  plant injury rating: 5D
Zinnia [6]; 2 lb/A
  plant injury rating: 5D
Zinnia [6]; 8 lb/A
  plant injury rating: 4BS
Mexican bean beetle
  Mexican Bean Beetle Stom. (mortality rating): 3 (100)
Zinnia [7]; 1/2 lb/A
  plant injury rating: 1 (no injury)
Zinnia [7]; 1 lb/A
  plant injury rating: 1 (no injury)
Zinnia [7]; 2 lb/A
  plant injury rating: 1 (no injury)
Zinnia [7]; 8 lb/A
  plant injury rating: 4RS
Morning-glory; 1/4 lb/A
  plant injury rating: 1 (no injury)
Morning-glory; 1/8 lb/A
  plant injury rating: 1 (no injury)
Morning-glory; 1 lb/A
  plant injury rating: 3BS
Morning-glory; 2 lb/A
  plant injury rating: 3BS
Morning-glory; 8 lb/A
  plant injury rating: 2B
Velvetleaf [8]; 1/2 lb/A
  plant injury rating: 1 (no injury)
Velvetleaf [8]; 1 lb/A
  plant injury rating: 1 (no injury)
Velvetleaf [8]; 2 lb/A
  plant injury rating: 1 (no injury)
Velvetleaf [8]; 8 lb/A
  plant injury rating: 3BS
Pigweed [9]; 1/4 lb/A
  plant injury rating: 3BS
Pigweed [9]; 1/8 lb/A
  plant injury rating: 3BS
Pigweed [9]; 1 lb/A
  plant injury rating: 5D
Pigweed [9]; 2 lb/A
  plant injury rating: 5D
Pigweed [9]; 8 lb/A
  plant injury rating: 5D
Large Crabgrass [10]; 1/4 lb/A
  plant injury rating: 3BS
Large Crabgrass [10]; 1/8 lb/A
  plant injury rating: 3BS
Large Crabgrass [10]; 1 lb/A
  plant injury rating: 5D
Large Crabgrass [10]; 2 lb/A
  plant injury rating: 5D
Large Crabgrass [10]; 8 lb/A
  plant injury rating: 3BS
Large Crabgrass [11]; 1/2 lb/A
  plant injury rating: 1 (no injury)
Large Crabgrass [11]; 1 lb/A
  plant injury rating: 2S
Large Crabgrass [11]; 2 lb/A
  plant injury rating: 4SB
Large Crabgrass [11]; 8 lb/A
  plant injury rating: 4RS
Pigweed [12]; 1/2 lb/A
  plant injury rating: 1 (no injury)
Pigweed [12]; 1 lb/A
  plant injury rating: 3S
Pigweed [12]; 2 lb/A
  plant injury rating: 4S
Pigweed [12]; 8 lb/A
  plant injury rating: 5N
